For series [1], the system named is respiratory syncytial virus Long strain. As to the kind of experiment: Antiviral activity against respiratory syncytial virus in HEp-2 cells (MTT cell protection). The class given is cell-based. How it is done:
The antiviral activity of these compounds against respiratory syncytial virus was determined in HEp-2 (ATCC CCL 23) cells that were seeded in 96 well microtiter plates at 1.5×10^4 cells/100 μL/well in DMEM (Dulbecco's Modified Eagle's Medium) supplemented with penicillin, streptomycin, glutamine, and 10% fetal bovine serum. The cells were incubated overnight at 37° C., the culture medium was removed, and cells were infected (100 μL volume in medium containing 2% fetal bovine serum) with respiratory syncytial virus Long strain at 5000 plaque forming units/mL. The compounds, 100 μL at appropriate dilution, were added to the cells 1 hour post infection. After incubation for 4 days at 37° C., the plates were stained with MTT solution (3-[4,5-dimethlythiazol-2-yl]-2,5-diphenyltetrazolium bromide) and incubated for 4 hours at 37° C. The media was aspirated from the cells and 100 μL/well of acidified isopropanol (per liter: 900 mL isopropanol, 100 mL Triton×100, and 4 mL conc. HCl) was added. Plates were incubated for 15 minutes at room temperature with shaking, and an optical density (OD 540) reading at 540 nanometer (nm) was obtained. The optical density reading is proportional to the number of viable cells. The increase in the number of viable cells reflects the protective, antiviral activity of the compound. […]

Structures are written as SMILES. pEC50: −log10 of the molar value.

In the case of `O=c1[nH]c2ccccc2n1Cc1nc2ccccc2n1CCn1cnnn1` [Compound 184], the melting point was above 200 °C.
`NC(=O)c1ncn([C@@H]2O[C@H](CO)[C@@H](O)[C@H]2O)n1` [Ribavirin] displayed a cell protection in series [1] (at 2.5 μg/mL (corresponding to 10.2 μM), HEp-2 cells, RSV Long strain) of 100%. Further, the pEC50 in series [1] (human respiratory syncytial virus, HEp-2 cells infected with RSV Long strain, compound added 1 hour post infection, 4 days, read-out: EC50 (concentration that produces 50% cell protection)) is 5.52.
